Laboratory results from US20030077709A1 (priority 2000, published 2003).

Columns and labels:
[1] = tested on: control vector-introduced CHO cells; assay: cAMP production test toward LTB4 in control vector-introduced CHO cells; type: cell-based; settings: 1 μM forskolin, 0 to 1 μM LTB4
Description: The CHO-dhfr(−) strain was inoculated at a density of 1×10^6 cells into a 10 cm Petri dish containing αMEM (supplemented with nucleic acids) medium/10% fetal bovine serum and cultured for 1 day and then subjected to gene transfer of 8 μg of pEF-BOS-dhfr-Jul22 and pEF-BOS-dhfr (control vector) using FuGENE6 (mfd. by Boehringer Mannheim). The gene-transferred cells were recovered 24 hours thereafter, suspended in αMEM (nucleic acid-free) medium/100 nM methotrexate (mfd. by Wako Pure Chemical Industries)/10% fetal bovine serum and then serially diluted and inoculated again into the 10 cm Petri dish. Colonies formed after 2 weeks were separately isolated and used as JULF2 stably expressing CHO cells.
Each of the JULF2 stably expressing CHO cells and control vector-introduced CHO cells was inoculated into a 24 well plate at a density of 1×10^5 cells. […] After 30 minutes at 37° C., the culture supernatant was discarded and the cells were lysed using a cAMP EIA System (BIOTRAK; mfd. by Amersham) cell lysis solution.
Measurement of the produced amount of cAMP in cells under each condition was carried out using the cAMP EIA System in accordance with the attached protocol. […] On the other hand, changes in the produced amount of cAMP by the addition of LTB4 were not found in the control vector-introduced CHO cells.

[2] = tested on: JULF2 stably expressing CHO cells; assay: Cell migration test of JULF2 stably expressing CHO cells toward LTB4; type: cell-based, human
Description: (§1) A 8 μm pore polycarbonate frame filter (mfd. by Neuroprobe) was treated with 10 μg/ml fibronectin (Asahi Technoglass)/PBS at 4° C. overnight. […] After 4 hours of culturing at 37° C. in a CO2 incubator, the frame filter was fixed with methanol and stained with Diff-Quik Staining Kit (International Reagents Corporation). The upper surface of this filter (the side on which cells were set) was wiped and air-dried and then absorbance at 595 nm was measured using a plate reader (Molecular Devices). Also, in order to examine pertussis toxin (PTX) sensitivity of the JULF2 stably expressing CHO cells, JULF2 stably expressing CHO cells treated with 50 ng/ml PTX for 20 hours were subjected to a cell migration test (FIG. 2).

[3] = tested on: rat JULF2 stably expressing CHO cell; assay: Cell migration test of rat JULF2 stably expressing CHO cell toward LTB4; type: cell-based; settings: same method of Example 6
Description: as §1

[4] = tested on: JULF2 stably expressing CHO cell; assay: Cell migration inhibition by JULF2 antagonist for migration of JULF2 stably expressing CHO cell toward LTB4; type: cell-based, human; settings: compound 0.03 to 100 μM in upper layer, 100 nM LTB4 in lower layer
Description: as §1

[5] = biological target: T1, JULF2 (Homo sapiens, UniProt Q9NPC1); assay: Screening of compounds which inhibit cAMP inhibition action by LTB4 using JULF2 stably expressing CHO cell; type: cell-based
T1 construct: expressed in transfected cells
T1 sequence (Q9NPC1 1-358): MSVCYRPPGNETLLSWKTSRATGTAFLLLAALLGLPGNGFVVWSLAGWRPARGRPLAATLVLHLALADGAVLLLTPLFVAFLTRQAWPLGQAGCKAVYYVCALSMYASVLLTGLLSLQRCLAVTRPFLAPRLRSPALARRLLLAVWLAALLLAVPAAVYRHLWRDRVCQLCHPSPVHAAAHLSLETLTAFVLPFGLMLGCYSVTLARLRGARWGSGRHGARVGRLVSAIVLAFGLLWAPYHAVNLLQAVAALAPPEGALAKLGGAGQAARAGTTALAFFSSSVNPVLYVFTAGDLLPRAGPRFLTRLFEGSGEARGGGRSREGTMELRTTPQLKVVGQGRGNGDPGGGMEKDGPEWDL
Excerpt: The compound A, compound B and compound C are commercially available reagents, and compound A is on the market as a code number 0199-0032 of ChemDiv, Inc, and compound B as a code number TPB-488 of InterBioScreen. […] In this connection, the property of the compound A to show anti-inflammatory effect is also described in Biochemical Pharmacology, 51, 737-742, 1996.

[6] = biological target: T1, JULF2; assay: Inhibition of binding of [3H]LTB4 to JULF2 expressing cell membrane fraction
Description: The DNA fragment obtained in Example 1 coding for JULF2 was digested with XbaI and then cloned into pCEP4 (mfd. by Invitrogen) to be used as an expression vector (pCEP4-JULF2) for expressing JULF2. HEK293-EBNA strain was inoculated into a 15 cm Petri dish at a density of 5×10^6 cells and cultured for 1 day, and then 20 μg of pCEP4-JULF2 was subjected to gene transfer using Lipofectamine-2000 (mfd. by Gibco BRL). The gene-transferred cells were recovered 24 hours thereafter, washed, suspended in 20 mM Tris-HCl (pH 7.4)/5 mM EDTA and then homogenized using Polytron. After ultracentrifugation, the sediment was suspended in 20 mM Tris-HCl (pH 7.4) and used as a membrane fraction.
A liquid scintillation was added to the glass filter and the radioactivity was measured using a liquid scintillation counter.

| IC50 [5] [µM] | IC50 [6] [µM] | Compound | changes in the produced amount of cAMP by the addition of LTB4 [1] | LTB4 concentration at which the migration activity becomes maximum (bell type chemotaxis) ([2]; JULF2 stably expressing CHO cells, 4 hours at 37° C., LTB4 in lower layer) [nM] | LTB4 concentration at which the migration activity becomes maximum (bell type chemotaxis) [3] [nM] | inhibition of cell migration toward LTB4 [4] | inhibition of migration toward LTB4 by PTX pretreatment ([2]; JULF2 stably expressing CHO cells treated with 50 ng/ml PTX for 20 hours) |
| --- | --- | --- | --- | --- | --- | --- | --- |
|  |  | CCCCC/C=C\C[C@@H](O)/C=C/C=C/C=C\[C@@H](O)CCCC(=O)O [LTB4, leukotriene B4] | not found | 30 | 100 |  |  |
| 0.4 | 0.1 | CCCCCCCCOc1ccc(C(=N)N)cc1.Cl [compound A, 4-octyloxybenzenecarboximidoamide hydrochloride] |  |  |  | inhibit cell migration toward LTB4 in a dose-dependent manner |  |
|  |  | pertussis toxin [PTX] |  |  |  |  | completely inhibited |
| 6.7 | 5.7 | CCCCCCOc1ccc(C(=N)NO)cc1 [compound B, 4-hexyloxy-N-hydroxybenzenecarboximidoamide] |  |  |  | inhibit cell migration toward LTB4 in a dose-dependent manner |  |
